The term IC50 denotes the midpoint of a concentration-inhibition curve. Low readings indicate higher potency, high ones lower potency.

In the experiment the target is MAPK14 (human) (UniProt Q16539). The experiment in a line: Inhibition of MAPK14 Kinase Activity.
Sequence of MAPK14 (human) (Q16539 whole entry, looked up): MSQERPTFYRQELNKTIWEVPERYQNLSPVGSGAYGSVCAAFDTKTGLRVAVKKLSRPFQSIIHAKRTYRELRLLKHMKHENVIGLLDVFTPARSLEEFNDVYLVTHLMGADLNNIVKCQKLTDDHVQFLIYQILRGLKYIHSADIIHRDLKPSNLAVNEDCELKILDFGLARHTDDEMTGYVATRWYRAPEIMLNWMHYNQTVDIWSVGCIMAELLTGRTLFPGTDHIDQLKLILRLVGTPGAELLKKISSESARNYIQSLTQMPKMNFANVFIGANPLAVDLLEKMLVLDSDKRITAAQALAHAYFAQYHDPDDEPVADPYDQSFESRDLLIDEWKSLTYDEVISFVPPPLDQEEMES
`O=C(Cc1ccccc1)Nc1cc(Cl)c(N2CC(Oc3ccc(F)cc3F)CCC2=O)c(Cl)c1` (centres undefined) showed a concentration for half-maximal inhibition (IC50) of at most 10 µM.

`O=C(Cc1ccccc1)NC1CCC(Cl)C(N2CC(Sc3ccc(F)cc3F)CCC2=O)C1Cl` (centres undefined) yielded an IC50 of at most 10 µM.

`COC(=O)/C=C/c1cc(Cl)c(N2CC(Cc3ccc(F)cc3F)CCC2=O)c(Cl)c1` (centres undefined) returned a 50% inhibitory concentration (IC50) of at most 10 µM.

With `O=C1CCC(Sc2cc(F)cc(F)c2)CN1c1c(Cl)cncc1Cl` (centres undefined), the 50% inhibitory concentration (IC50) was at most 10 µM.

`O=C1CCC(Oc2ccccc2F)CN1c1c(Cl)cccc1Cl` (centres undefined) came in with an IC50 of at most 10 µM.

In turn, `O=C1CNC(Cc2ccc(F)cc2F)CN1c1c(Cl)cccc1Cl` (centres undefined) yielded a half-maximal inhibitory concentration (IC50) of at most 10 µM.

In the case of `CC(C)(C)OC(=O)N(CC(=O)O)c1cc(Cl)c(N2CC(Cc3ccc(F)cc3F)CCC2=O)c(Cl)c1` (centres undefined), the IC50 was at most 10 µM.

The compound `O=C1NCC(Cc2ccc(F)cc2F)CN1c1c(Cl)ccc(CO)c1Cl` (centres undefined) registered an IC50 of at most 10 µM.

In turn, `CN(C)CCN(C(=O)OC(C)(C)C)c1cc(Cl)c(N2CC(Cc3ccc(F)cc3F)CCC2=O)c(Cl)c1` (centres undefined) returned an IC50 of at most 10 µM.

These data come from the Kinase Knowledgebase extract (Sharma et al. 2016).
